Each block holds one compound with its values, some of them ahead of it.
What was measured:
[1] = In-vitro free radical scavenging activity using DPPH free radical; details: 30° C., 30 minutes, 515 nm
Description: Free Radical Scavenging Activity:
To determine the in-vitro free radical scavenging activity of compounds of general formula-I on 2,2,-diphenyl-1-picrylhydrazyl (DPPH)radical (Ref: W. Brand-Williams, M. E. Cuvelier, C. Berset “Use of a free radical method to evaluate antioxidant activity”, Lebensm.- Wiss.u.Technol.,1995,28,Nr.1:25-30).
To evaluate the free radical scavenging activity of compounds they are allowed to react with stable radical DPPH*. In its radical form, DPPH* absorbed at the characteristic wave length of 515 nm, but upon reduction by an antioxidant or radical scavenger (AH), the absorption disappears.
10^−4M solution of DPPH* was prepared in methanol.
Various concentrations (10 mM, 1 mM, 0.5 mM, 0.25 mM and 0.125 mM) of drug solutions were prepared in methanol.
900 μl of DPPH radical solution was added to an eppendorf tube. To it was added 100 μl of methanol.
900 μl of DPPH radical solution was added to an eppendorf tube. To it was added 100 μl of various concentrations of drug solutions in methanol.
The absorbance of control and test samples was recorded after incubation at 30° C. for 30 minutes, at 515 nm taking methanol as blank.
The percent antioxidant activity was calculated according to the formula:
% Antioxidant activity=100−[O.D of test sample/O.D of control*100]

[2] = target: T1, Porcine DPP-IV (Sus scrofa, UniProt P22411); assay: Assay of DPP-IV enzyme inhibitory activity (spectrophotometric, Gly-Pro-pNA cleavage); assay type: biochemical; details: Porcine DPP-IV, Gly-Pro-pNA substrate, 30° C.; mean ± SD of three experiments except compound Nos. 133 & 139; read-out: IC50 (μM) Mean ± SD, inhibitory activity on DPP-IV enzyme activity
T1 construct: purchased Sigma-Aldrich Germany
T1 sequence (P22411 whole entry): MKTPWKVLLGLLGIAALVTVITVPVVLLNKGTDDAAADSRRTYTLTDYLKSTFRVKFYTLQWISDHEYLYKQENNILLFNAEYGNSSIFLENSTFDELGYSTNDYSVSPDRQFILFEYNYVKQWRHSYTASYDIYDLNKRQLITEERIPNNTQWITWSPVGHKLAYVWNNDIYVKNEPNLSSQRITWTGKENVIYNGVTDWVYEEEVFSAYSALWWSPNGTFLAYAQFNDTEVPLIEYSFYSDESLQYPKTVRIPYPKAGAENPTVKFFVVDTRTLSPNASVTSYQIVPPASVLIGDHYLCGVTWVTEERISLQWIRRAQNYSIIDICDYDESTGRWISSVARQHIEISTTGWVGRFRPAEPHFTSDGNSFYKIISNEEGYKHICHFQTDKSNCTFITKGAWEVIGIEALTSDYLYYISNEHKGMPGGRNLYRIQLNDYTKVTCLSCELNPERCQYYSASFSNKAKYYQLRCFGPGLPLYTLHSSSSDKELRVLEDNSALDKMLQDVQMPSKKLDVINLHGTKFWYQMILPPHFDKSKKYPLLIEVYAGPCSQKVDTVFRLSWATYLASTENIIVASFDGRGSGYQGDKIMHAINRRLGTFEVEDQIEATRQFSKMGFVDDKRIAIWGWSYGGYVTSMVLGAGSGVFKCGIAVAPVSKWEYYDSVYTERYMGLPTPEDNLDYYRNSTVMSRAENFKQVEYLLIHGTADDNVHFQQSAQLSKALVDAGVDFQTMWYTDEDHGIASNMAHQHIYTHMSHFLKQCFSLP

SMILES: CC(C)NN(CC(=O)N1CSCC1C#N)C1CCN(S(C)(=O)=O)CC1.O=C(O)C(F)(F)F (stereo not shown) [Compound No. 87, 3-[1-oxo-2-[1-(1 (methylsulphonyl)-piperidin-4-yl)-2-isopropyl]hydrazino]ethyl-4-cyanothiazolidine trifluoroacetate]
- % Activity (antioxidant, DPPH) ([1]; Concentration 12.5 μM): 12.87%
- % Activity (antioxidant, DPPH) ([1]; Concentration 25 μM): 30.88%
- % Activity (antioxidant, DPPH) ([1]; Concentration 50 μM): 44.03%
- % Activity (antioxidant, DPPH) ([1]; Concentration 100 μM): 55.94%
- IC50 [2]: 18.3 ± 3.2 µM

SMILES: CCNN(CC(=O)N1CSCC1C#N)C1CCN(S(C)(=O)=O)CC1.O=C(O)C(F)(F)F (stereo not shown) [Compound No. 88, 3-[1-oxo-2-[1-(1-(methylsulphonyl)-piperidin-4-yl)-2-ethyl]hydrazino]ethyl-4-cyanothiazolidine trifluoroacetate]
- % Activity (antioxidant, DPPH) ([1]; Concentration 12.5 μM): 14.49%
- % Activity (antioxidant, DPPH) ([1]; Concentration 25 μM): 44.12%
- % Activity (antioxidant, DPPH) ([1]; Concentration 50 μM): 56.11%
- % Activity (antioxidant, DPPH) ([1]; Concentration 100 μM): 69.34%
- IC50 [2]: 3.75 ± 0.101 µM

SMILES: CCNN(CC(=O)N1CSCC1C#N)C1CCN(C(=O)N2CCOCC2)CC1.O=C(O)C(F)(F)F (stereo not shown) [Compound No. 89, 3-[1-oxo-2-[1-(1-(morpholinocarbonyl)-piperidin-4-yl)-2-ethyl]hydrazino]ethyl-4-cyanothiazolidine trifluoroacetate]
- % Activity (antioxidant, DPPH) ([1]; Concentration 12.5 μM): 10.37%
- % Activity (antioxidant, DPPH) ([1]; Concentration 25 μM): 20.74%
- % Activity (antioxidant, DPPH) ([1]; Concentration 50 μM): 36.94%
- % Activity (antioxidant, DPPH) ([1]; Concentration 100 μM): 55.07%
- IC50 [2]: 0.985 ± 0.086 µM

SMILES: CCN(C)C(=O)N1CCC(N(N)CC(=O)N2CSCC2C#N)CC1.O=C(O)C(F)(F)F (stereo not shown) [Compound No. 90, 3-[1-oxo-2-[1-(1-(N-ethylmethylaminocarbonyl)-piperidin-4-yl)]hydrazino]ethyl-4-cyanothiazolidine trifluoroacetate]
- % Activity (antioxidant, DPPH) ([1]; Concentration 12.5 μM): 21.81%
- % Activity (antioxidant, DPPH) ([1]; Concentration 25 μM): 42.93%
- % Activity (antioxidant, DPPH) ([1]; Concentration 50 μM): 62.91%
- % Activity (antioxidant, DPPH) ([1]; Concentration 100 μM): 82.75%
- IC50 [2]: 1.23 ± 0.3 µM

SMILES: COc1ccc(S(=O)(=O)N2CCC(N(N)CC(=O)N3CSCC3C#N)CC2)cc1.O=C(O)C(F)(F)F (stereo not shown) [Compound No. 91, 3-[1-oxo-2-[1-(1-(4-methoxyphenylsulphonyl)-piperidin-4-yl)]hydrazino]ethyl-4-cyanothiazolidine trifluoroacetate]
- % Activity (antioxidant, DPPH) ([1]; Concentration 12.5 μM): 17.16%
- % Activity (antioxidant, DPPH) ([1]; Concentration 25 μM): 38.11%
- % Activity (antioxidant, DPPH) ([1]; Concentration 50 μM): 58.87%
- % Activity (antioxidant, DPPH) ([1]; Concentration 100 μM): 85.69%
- IC50 [2]: 6.7 ± 0.4 µM

SMILES: COc1ccc(S(=O)(=O)NC2CCC(N(N)CC(=O)N3CSCC3C#N)CC2)cc1.O=C(O)C(F)(F)F (stereo not shown) [Compound No. 92, 3-[1-oxo-2-[1-(1-(4-methoxyphenylsulphonyl)aminocyclohexan-4-yl)]hydrazino]ethyl-4-cyanothiazolidine trifluoroacetate]
- % Activity (antioxidant, DPPH) ([1]; Concentration 12.5 μM): 10.07%
- % Activity (antioxidant, DPPH) ([1]; Concentration 25 μM): 30.36%
- % Activity (antioxidant, DPPH) ([1]; Concentration 50 μM): 58.48%
- % Activity (antioxidant, DPPH) ([1]; Concentration 100 μM): 78.77%
- IC50 [2]: 1.33 ± 0.124 µM

- IC50 [2]: 5.56 ± 0.18 µM
SMILES: N#CC1CSCN1C(=O)CN(N)C1CCC(NCc2ccc(F)cc2)CC1 (stereo not shown) [Compound No. 93, 3-[1-oxo-2-[1-(1-(4-fluorobenzyl)aminocyclohexan-4-yl)]hydrazino]ethyl-4-cyanothiazolidine bis-trifluoroacetate]
- % Activity (antioxidant, DPPH) ([1]; Concentration 12.5 μM): 15.18%
- % Activity (antioxidant, DPPH) ([1]; Concentration 25 μM): 28.08%
- % Activity (antioxidant, DPPH) ([1]; Concentration 50 μM): 44.13%
- % Activity (antioxidant, DPPH) ([1]; Concentration 100 μM): 64.24%

- IC50 [2]: 2.23 ± 0.08 µM
SMILES: N#CC1CSCN1C(=O)CN(N)C1CCN(Cc2ccc(F)cc2)CC1 (stereo not shown) [Compound No. 94, 3-[1-oxo-2-[1-(1-(4-fluorobenzyl)-piperidin-4-yl)]hydrazino]ethyl-4-cyanothiazolidine bis-trifluoroacetate]
- % Activity (antioxidant, DPPH) ([1]; Concentration 12.5 μM): 9.34%
- % Activity (antioxidant, DPPH) ([1]; Concentration 25 μM): 24.05%
- % Activity (antioxidant, DPPH) ([1]; Concentration 50 μM): 39.04%
- % Activity (antioxidant, DPPH) ([1]; Concentration 100 μM): 55.85%

Reference: patent publication US20040106802A1, “Novel compounds and therapeutic uses thereof” (TORRENT PHARMACEUTICALS LTD., priority 2002, published 2004)
